Test results: patent US7541359B2, “N-heteroarylpiperazinyl ureas as modulators of fatty acid amide hydrolase” (Janssen Pharmaceutica N.V., priority 2005, dated 2009)

What was measured:
Format in all cases: biochemical
Rat FAAH = molecular target: T1, Rat FAAH (Rattus norvegicus, UniProt P97612); assay: Assay Method 3: FAAH assay, homogenate of SK-N-MC cells transfected with rat FAAH; details: rat FAAH transfected SK-N-MC cell homogenate; 3H-AEA tracer 80 nM; rt 1 h
T1 construct: expressed in transfected cells; host or cells: SK-N-MC cells, electroporated, G418-selected clones
T1 sequence (P97612 1-579): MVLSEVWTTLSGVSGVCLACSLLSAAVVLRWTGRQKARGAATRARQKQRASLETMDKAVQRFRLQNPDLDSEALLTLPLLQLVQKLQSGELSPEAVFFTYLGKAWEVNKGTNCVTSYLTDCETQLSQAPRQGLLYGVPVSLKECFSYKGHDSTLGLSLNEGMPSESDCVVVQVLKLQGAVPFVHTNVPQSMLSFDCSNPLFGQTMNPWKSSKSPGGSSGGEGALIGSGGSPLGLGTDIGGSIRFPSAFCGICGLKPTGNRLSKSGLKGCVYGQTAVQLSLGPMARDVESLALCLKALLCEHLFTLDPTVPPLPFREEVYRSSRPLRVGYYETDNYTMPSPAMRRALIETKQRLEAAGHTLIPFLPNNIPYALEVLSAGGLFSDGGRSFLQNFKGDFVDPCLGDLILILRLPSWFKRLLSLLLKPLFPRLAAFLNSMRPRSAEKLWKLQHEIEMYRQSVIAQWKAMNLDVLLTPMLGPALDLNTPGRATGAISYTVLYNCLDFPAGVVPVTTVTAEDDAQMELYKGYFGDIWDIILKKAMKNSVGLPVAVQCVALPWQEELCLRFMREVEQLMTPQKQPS
Protocol: Assay Method 3 A. Transfection of Cells with Rat FAAH
A 10-cm tissue culture dish with a confluent monolayer of SK-N-MC cells was split 2 days (d) prior to transfection. Using sterile technique, the media was removed and the cells were detached from the dish by the addition of trypsin. One fifth of the cells were then placed onto a new 10-cm dish. Cells were grown in a 37° C. incubator with 5% CO2 in Minimal Essential Media Eagle with 10% Fetal Bovine Serum. After 2 d, cells were approximately 80% confluent. These cells were removed from the dish with trypsin and pelleted in a clinical centrifuge. The pellet was re-suspended in 400 μL complete media and transferred to an electroporation cuvette with a 0.4 cm gap between the electrodes. Supercoiled rat FMH cDNA (1 μg) was added to the cells and mixed. The voltage for the electroporation was set at 0.25 kV, and the capacitance was set at 960 μF. After electroporation, the cells were diluted into complete media (10 mL) and plated onto four 10-cm dishes. Because of the variability in the efficiency of electroporation, four different concentrations of cells were plated. […] After 10 d, dishes were analyzed for surviving colonies of cells. Dishes with well-isolated colonies were used. Cells from individual colonies were isolated and tested.
The assay mixture consisted of 50 μL of the cell homogenate, 10 μL of the test compound, and 40 μL of anandamide [1-^3H-ethanolamine] (^3H-AEA, Perkin-Elmer, 10.3 Ci/mmol), which was added last, for a final tracer concentration of 80 nM. The reaction mixture was incubated at rt for 1 h. During the incubation, 96-well Multiscreen filter plates (catalog number MAFCNOB50: Millipore, Bedford, Mass., USA) were loaded with 25 μL of activated charcoal (Multiscreen column loader, catalog number MACL09625, Millipore) and washed once with 100 μL of MeOH. […] After the 1 h incubation, 60 μL of the reaction mixture were transferred to the charcoal plates, which were then assembled on top of the DYNEX plates using Centrifuge Alignment Frames (catalog number MACF09604, Millipore). The unbound labeled ethanolamine was centrifuged through to the bottom plate (5 min at 2000 rpm), which was preloaded with the scintillant, as described above. The plates were sealed and left at rt for 1 h before counting on a Hewlett Packard TopCount.

FAAH [1] = molecular target: T2, FAAH (Homo sapiens, UniProt O00519); assay: Assay Method 2: FAAH assay, homogenate of SK-N-MC cells transfected with human FAAH; parameters: expressed in transfected cells; host or cells: SK-N-MC cells, electroporated, G418-selected clones; details: human FAAH transfected SK-N-MC cell homogenate; 3H-AEA tracer 80 nM; rt 1 h
T2 sequence (O00519 1-579): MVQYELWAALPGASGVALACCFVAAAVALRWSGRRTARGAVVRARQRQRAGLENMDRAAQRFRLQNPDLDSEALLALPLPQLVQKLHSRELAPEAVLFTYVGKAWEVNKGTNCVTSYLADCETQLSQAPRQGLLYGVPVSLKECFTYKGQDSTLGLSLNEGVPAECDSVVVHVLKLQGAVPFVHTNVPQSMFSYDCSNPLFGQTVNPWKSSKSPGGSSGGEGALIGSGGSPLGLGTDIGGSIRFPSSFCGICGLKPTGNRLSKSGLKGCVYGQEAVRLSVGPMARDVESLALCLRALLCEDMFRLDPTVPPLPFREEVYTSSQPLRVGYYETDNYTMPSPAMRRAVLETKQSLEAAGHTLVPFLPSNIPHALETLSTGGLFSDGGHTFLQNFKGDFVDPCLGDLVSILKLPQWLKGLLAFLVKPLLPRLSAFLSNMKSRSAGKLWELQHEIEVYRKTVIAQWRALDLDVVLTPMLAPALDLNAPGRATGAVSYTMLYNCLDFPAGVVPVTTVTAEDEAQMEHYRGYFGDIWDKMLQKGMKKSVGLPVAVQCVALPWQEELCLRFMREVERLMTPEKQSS
Protocol: Assay Method 2 A. Transfection of Cells with Human FAAH
A 10-cm tissue culture dish with a confluent monolayer of SK-N-MC cells was split 2 days (d) prior to transfection. Using sterile technique, the media was removed and the cells were detached from the dish by the addition of trypsin. One fifth of the cells were then placed onto a new 10-cm dish. Cells were grown in a 37° C. incubator with 5% CO2 in Minimal Essential Media Eagle with 10% Fetal Bovine Serum. After 2 d, cells were approximately 80% confluent. These cells were removed from the dish with trypsin and pelleted in a clinical centrifuge. The pellet was re-suspended in 400 μL complete media and transferred to an electroporation cuvette with a 0.4 cm gap between the electrodes. Supercoiled human FMH cDNA (1 μg) was added to the cells and mixed. The voltage for the electroporation was set at 0.25 kV, and the capacitance was set at 960 μF. After electroporation, the cells were diluted into complete media (10 mL) and plated onto four 10-cm dishes. Because of the variability in the efficiency of electroporation, four different concentrations of cells were plated. The ratios used were 1:20, 1:10, and 1:5, with the remainder of the cells being added to the fourth dish. The cells were allowed to recover for 24 h before adding the selection media (complete media with 600 μg/mL G418). After 10 d, dishes were analyzed for surviving colonies of cells. Dishes with well-isolated colonies were used. Cells from individual colonies were isolated and tested.
The assay mixture consisted of 50 μL of the cell homogenate, 10 μL of the test compound, and 40 μL of anandamide [1-^3H-ethanolamine] (^3H-AEA, Perkin-Elmer, 10.3 Ci/mmol), which was added last, for a final tracer concentration of 80 nM. The reaction mixture was incubated at rt for 1 h. During the incubation, 96-well Multiscreen filter plates (catalog number MAFCNOB50; Millipore, Bedford, […]., USA) were loaded with 25 μL of activated charcoal (Multiscreen column loader, catalog number MACL09625, Millipore) and washed once with 100 μL of MeOH. Also during the incubation, 96-well DYNEX MicroLite plates (catalog number NL510410) were loaded with 100 μL of MicroScint40 (catalog number 6013641, Packard Bioscience, Meriden, Conn., USA). After the 1 h incubation, 60 μL of the reaction mixture were transferred to the charcoal plates, which were then assembled on top of the DYNEX plates using Centrifuge Alignment Frames (catalog number MACF09604, Millipore). The unbound labeled ethanolamine was centrifuged through to the bottom plate (5 min at 2000 rpm), which was preloaded with the scintillant, as described above. The plates were sealed and left at rt for 1 h before counting on a Hewlett Packard TopCount.

FAAH [2] = molecular target: T2, FAAH; assay: Assay Method 1: FAAH assay, T84 cell homogenate, 3H-anandamide hydrolysis; parameters: T84 frozen pellets (contents of 1-4×15 cm culture dishes) were homogenized in 300 mL of FAAH assay buffer; endogenous in cells; host or cells: T84 cells (homogenate); details: 3H-AEA tracer 200 nM, rt 1 h
Protocol: The assay mixture was prepared from 50 μL of the cell homogenate, 10 μL of the test compound, and 40 μL of anandamide [1-^3H-ethanolamine] (^3H-AEA; Perkin-Elmer, 10.3 Ci/mmol), which was added last, for a final tracer concentration of 200 nM. The reaction mixture was incubated at rt for 1 hour (h). During the incubation, 96-well Multiscreen filter plates (catalog number MAFCNOB50; Millipore, Bedford, Mass. USA) were loaded with 25 μL of activated charcoal (Multiscreen column loader, catalog number MACL09625, Millipore) and washed once with 100 μL of MeOH. […] After the 1 h incubation, 60 μL of the reaction mixture were transferred to the charcoal plates, which were then assembled on top of the DYNEX plates using Centrifuge Alignment Frames (catalog number MACF09604, Millipore). The unbound, labeled ethanolamine was centrifuged through to the bottom plate (5 min at 2000 rpm), which was preloaded with the scintillant, as described above. The plates were sealed and left at rt for 1 h before counting on a Hewlett Packard TopCount.

Compound	IC50 (Rat FAAH) [nM]	IC50 (FAAH [1]) [nM]	IC50 (FAAH [2]) [nM]
CC1CCN(c2nsc(N3CCN(C(=O)Nc4ccccc4)CC3)n2)CC1 [Example 29, 4-[3-(4-Methyl-piperidin-1-yl)-[1,2,4]thiadiazol-5-yl]-piperazine-1-carboxylic acid phenylamide]	5000	> 10000	–
O=C(Nc1ccccc1)N1CCN(c2nc(-c3ccccc3)ns2)CC1 [Example 1, 4-(3-Phenyl-[1,2,4]thiadiazol-5-yl)-piperazine-1-carboxylic acid phenylamide]	46	–	–
O=C(Nc1ncccn1)N1CCN(c2nc(-c3ccccc3)ns2)CC1 [Example 31, 4-(3-Phenyl-[1,2,4]thiadiazol-5-yl)-piperazine-1-carboxylic acid pyrimidin-2-ylamide]	30	160	–
O=C(Nc1nccs1)N1CCN(c2nc(-c3ccccc3)ns2)CC1 [Example 32, 4-(3-Phenyl-[1,2,4]thiadiazol-5-yl)-piperazine-1-carboxylic acid thiazol-2-ylamide]	77	450	–
O=C(Nc1ccccc1)N1CCN(c2nc(N3CCCCC3)ns2)CC1 [Example 27, 4-(3-Piperidin-1-yl-[1,2,4]thiadiazol-5-yl)-piperazine-1-carboxylic acid phenylamide]	1100	260	–
O=C(Nc1ccncc1)N1CCN(c2nc(-c3ccccc3)ns2)CC1 [Example 33, 4-(3-Phenyl-[1,2,4]thiadiazol-5-yl)-piperazine-1-carboxylic acid pyridin-4-ylamide]	18	–	28
O=C(Nc1ccccc1)N1CCN(c2nc(N3CCCC3)ns2)CC1 [Example 28, 4-(3-Pyrrolidin-1-yl-[1,2,4]thiadiazol-5-yl)-piperazine-1-carboxylic acid phenylamide]	5000	3000	–

Results, then the compound that gave them:

IC50 (Rat FAAH) [nM]	IC50 (FAAH [1]) [nM]	IC50 (FAAH [2]) [nM]	Compound
120	130	–	O=C(Nc1ccccc1)N1CCN(c2nc(-c3ccsc3)ns2)CC1 [Example 43, 4-(3-Thiophen-3-yl-[1,2,4]thiadiazol-5-yl)-piperazine-1-carboxylic acid phenylamide]
84	43	–	Cc1cccc(-c2nsc(N3CCN(C(=O)Nc4ccccc4)CC3)n2)c1 [Example 38, 4-(3-m-Tolyl-[1,2,4]thiadiazol-5-yl)-piperazine-1-carboxylic acid phenylamide]
300	60	–	O=C(Nc1ccccc1)N1CCN(c2nc(-c3cccs3)ns2)CC1 [Example 42, 4-(3-Thiophen-2-yl-[1,2,4]thiadiazol-5-yl)-piperazine-1-carboxylic acid phenylamide]
> 10000	> 10000	–	O=C(Nc1ccccc1)N1CCN(c2nc(N3CCOCC3)ns2)CC1 [Example 44, 4-(3-Morpholin-4-yl-[1,2,4]thiadiazol-5-yl)-piperazine-1-carboxylic acid phenylamide]
57	60	–	O=C(Nc1ccccc1)N1CCN(c2nc(-c3cc(Cl)cc(Cl)c3)ns2)CC1 [Example 39, 4-[3-(3,5-Dichloro-phenyl)-[1,2,4]thiadiazol-5-yl]-piperazine-1-carboxylic acid phenylamide]
590	350	–	O=C(Nc1ccccc1)N1CCN(c2nc(-c3ccoc3)ns2)CC1 [Example 41, 4-(3-Furan-3-yl-[1,2,4]thiadiazol-5-yl)-piperazine-1-carboxylic acid phenylamide]
2000	540	–	O=C(Nc1ccccc1)N1CCN(c2nc(-c3ccco3)ns2)CC1 [Example 40, 4-(3-Furan-2-yl-[1,2,4]thiadiazol-5-yl)-piperazine-1-carboxylic acid phenylamide]
